This is an account of results in US20100093811A1 (priority 2007, published 2010).

Counter-ions that a name gives are not always drawn. Like-named read-outs stand apart in the source and are kept apart here.

For test [1], the target named is wild-type HIV-1 protease (Human immunodeficiency virus type 1 group M subtype B, UniProt P04585). The experiment in a line: Assay for inhibition of microbial expressed HIV protease. Format: biochemical. A digest of the protocol:
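E. coli-expressed protease (5 pM) preincubated with inhibitor 30 min at room temperature in 50 mM sodium acetate pH 5.5, 100 mM NaCl, 0.1% BSA. Substrate Val-Ser-Gln-Asn-(betanapthyl)Ala-Pro-Ile-Val at 440 micromolar, 1 h at 30° C; acid-quenched, product peak area by C18 HPLC gives inhibition.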

For test [2], the system named is acute HIV infection of T-lymphoid cells. The experiment in a line: Assay for inhibition of HIV replication (spread assay). Format: cell-based, HIV-1. The procedure: • Assay for Inhibition of HIV Replication
Assays for the inhibition of acute HIV infection of T-lymphoid cells were conducted in accordance with Vacca, J. P. et al., Proc. Natl. Acad. Sci. USA 1994, 91: 4096.

Where [3] appears, read: wild-type HIV-1 protease expressed in E. coli, peptide substrate, pH 5.5, read-out: Enzyme Inhibition - IC50.
Setting [4] is: Human immunodeficiency virus 1, T-lymphoid, read-out: Spread - IC95.

On to `COC(=O)N[C@H](C(=O)N[C@H](CCC[C@@H](CO)N(CCC(C)C)S(=O)(=O)c1ccc(C(C)=O)cc1)C1CC1)C(c1ccc(F)cc1)c1ccc(F)cc1` [Example E5, N-{(1R,5S)-5-[[(4-acetylphenyl)sulfonyl](3-methylbutyl)amino]-1-cyclopropyl-6-hydroxyhexyl}-4-fluoro-β-(4-fluorophenyl)-Nα-(methoxycarbonyl)-L-phenylalaninamide], for which the IC50 (usually the point on the concentration scale where inhibition reaches its midpoint) in test [1] (setting [3]) stood at 0.053 nM. In addition, the IC95 (usually the concentration at which the effect reaches the 95% level) in test [2] (setting [4]) is 47 nM.

For `CCCN([C@H](CO)CCC[C@H](C)NC(=O)[C@@H](NC(=O)OC)C(c1ccccc1)c1ccccc1)S(=O)(=O)c1ccc(N)cc1` [Example F2, N-{(1S,5S)-5-[[(4-aminophenyl)sulfonyl](propyl)amino]-6-hydroxy-1-methylhexyl}-Nα-(methoxycarbonyl)-β-phenyl-L-phenylalaninamide], the IC50 in test [1] (setting [3]) came to 0.028 nM. Moreover, the IC95 in test [2] (Human immunodeficiency virus 1, T-lymphoid, read-out: Spread - IC95 (nM)) came to 23 nM.

In the case of `CCCN([C@H](CO)CCC[C@H](CC)NC(=O)[C@@H](NC(=O)OC)C(c1ccccc1)c1ccccc1)S(=O)(=O)c1ccc(N)cc1` [Example F5, N-{(1S,5S)-5-[[(4-aminophenyl)sulfonyl](propyl)amino]-1-ethyl-6-hydroxyhexyl}-Nα-(methoxycarbonyl)-β-phenyl-L-phenylalaninamide], the IC50 in test [1] (setting [3]) came out at 0.163 nM. Moreover, in test [2] (setting [4]), the IC95 is 54 nM.

As to `COC(=O)N[C@H](C(=O)N[C@@H](C)CCC[C@@H](CO)N(C)S(=O)(=O)c1ccc(CO)cc1)C(c1ccccc1)c1ccccc1` [Example G6, N-{(1S,5S)-6-hydroxy-5-[{[4-(hydroxymethyl)phenyl]sulfonyl}(methyl)amino]-1-methylhexyl}-Nα-(methoxycarbonyl)-β-phenyl-L-phenylalaninamide], in test [1] (setting [3]), the IC50 came to 0.376 nM. The IC95 in test [2] (setting [4]) turned out to be 161 nM.

Consider `COC(=O)N[C@H](C(=O)N[C@H](CCC[C@@H](CO)N(CCC(C)C)S(=O)(=O)c1ccc(CO)cc1)C(C)(C)C)C(c1ccccc1)c1ccccc1` [Example J6, N-{(1R,5S)-1-tert-butyl-6-hydroxy-5-[{[4-(hydroxymethyl)phenyl]sulfonyl}(3-methylbutyl)amino]hexyl}-Nα-(methoxycarbonyl)-β-pbenyl-L-phenylalaninamide], for which the IC50 in test [1] (setting [3]) came out at 0.976 nM. Moreover, the IC95 in test [2] (setting [4]) came to 327 nM.

As to `Cc1ccc(S(=O)(=O)N(CCC(C)C)[C@H](CO)CC(C)CCNC(=O)[C@@H](N)C(c2ccccc2)c2ccccc2)cc1` (stereo partly drawn) [Example B1, (2S)-2-amino-N-((5S)-6-hydroxy-3-methyl-5-{(3-methylbutyl)[(4-methylphenyl)-sulfonyl]amino}hexyl)-3,3-diphenylpropanamide], the IC50 in test [1] (setting [3]) came out at 0.51 nM. The IC95 in test [2] (setting [4]) turned out to be 500 nM.

In the case of `COC(=O)N[C@@H](Cc1ccccc1Cl)C(=O)N[C@H](CCC[C@@H](CO)N(C(C)C)S(=O)(=O)c1ccc(CO)cc1)C1CC1` [Example I2, 2-chloro-N-{(1R,5S)-1-cyclopropyl-6-hydroxy-5-[{[4-(hydroxymethyl)phenyl]sulfonyl}(isopropyl)amino]hexyl}-Nα-(methoxycarbonyl)-L-phenylalaninamide], the IC50 in test [1] (setting [3]) was determined as 2.25 nM. The IC95 in test [2] (setting [4]) is 422 nM.

`COC(=O)N[C@H](C(=O)N[C@H](CCC[C@@H](CO)N(CCC(C)C)S(=O)(=O)c1ccc(N)cc1)C(C)C)C(c1ccccc1)c1ccccc1` [Example D10, N-{(1R,5S)-5-[[(4-aminophenyl)sulfonyl](3-methylbutyl)amino]-6-hydroxy-1-isopropylhexyl}-Nα-(methoxycarbonyl)-β-phenyl-L-phenylalaninamide]: the IC50 in test [1] (setting [3]) is 0.099 nM. For the same molecule, the IC95 in test [2] (setting [4]) stood at 37 nM.

In the case of `COC(=O)N[C@@H](Cc1ccccc1Cl)C(=O)N[C@H](CCC[C@@H](CO)N(CCC(C)C)S(=O)(=O)c1ccc([C@H](C)O)cc1)C1CC1` [Example J15, 2-chloro-N-{(1R,5S)-1-cyclopropyl-6-hydroxy-5-[({4-[(1S)-1-hydroxyethyl]phenyl}sulfonyl)(3-methylbutyl)amino]hexyl}-Nα-(methoxycarbonyl)-L-pbenylalaninamide], the IC50 in test [1] (setting [3]) came to 0.372 nM. For the same molecule, the IC95 in test [2] (setting [4]) came to 42 nM.

Regarding `CN[C@H](C(=O)N[C@H](CCC[C@@H](CO)N(CCC(C)C)S(=O)(=O)c1ccc(CO)cc1)C1CC1)C(c1ccccc1)c1ccccc1` [Example J28, N-{(1R,5S)-1-cyclopropyl-6-hydroxy-5-[{[4-(hydroxymethyl)phenyl]sulfonyl}(3-methylbutyl)amino]hexyl}-Nα-methyl-β-phenyl-L-phenylalaninamide], the IC50 in test [1] (setting [3]) was 0.01 nM. The IC95 in test [2] (setting [4]) amounted to 8 nM.

With `COC(=O)N[C@@H](Cc1ccccc1Br)C(=O)N[C@@H](C)CCC[C@@H](CO)N(C(C)C)S(=O)(=O)c1ccc(CO)cc1` [Example G13, 2-bromo-N-{(1S,5S)-6-hydroxy-5-[{[4-(hydroxymethyl)phenyl]sulfonyl}(isopropyl)amino]-1-methylhexyl}-Nα-(methoxycarbonyl)-L-phenylalaninamide], the IC50 in test [1] (setting [3]) is 0.291 nM. In addition, the IC95 in test [2] (setting [4]) amounted to 71 nM.

For `COC(=O)NC(Cc1cccc(Cl)c1Cl)C(=O)N[C@@H](C)CCC[C@@H](CO)N(C(C)C)S(=O)(=O)c1ccc(CO)cc1` (stereo partly drawn) [Example J45, 2,3-dichloro-N-{(1S,5S)-6-hydroxy-5-[{[4-(hydroxymethyl)phenyl]sulfonyl}(isopropyl)amino]-1-methylhexyl}-Nα-(methoxycarbonyl)phenylalaninamide], the IC50 in test [1] (setting [3]) came out at 0.041 nM. The IC95 in test [2] (setting [4]) is 80 nM.

In the case of `CC[C@@H](CCC[C@@H](CO)N(C(C)C)S(=O)(=O)c1ccc(CO)cc1)NC(=O)[C@@H](NC(=O)OC)C(c1ccccc1)c1ccccc1` [Example G19, N-{(1S,5S)-1-ethyl-6-hydroxy-5-[{[4-(hydroxymethyl)phenyl]sulfonyl}(isopropyl)amino]hexyl}-Nα-(methoxycarbonyl)-β-phenyl-L-phenylalaninamide], the IC50 in test [1] (setting [3]) stood at 0.076 nM. The IC95 in test [2] (setting [4]) is 43 nM.

On to `CC[C@@H](CCC[C@@H](CO)N(CCC(C)C)S(=O)(=O)c1ccc(N)c(F)c1)NC(=O)[C@@H](NC(=O)OC)C(c1ccccc1)c1ccccc1` [Example D3, N-{(1S,5S)-5-[[(4-amino-3-fluorophenyl)sulfonyl](3-methylbutyl)amino]-1-ethyl-6-hydroxyhexyl}-Nα-(methoxycarbonyl)-b-phenyl-L-phenylalaninamide], for which the IC50 in test [1] (setting [3]) turned out to be 0.054 nM. For the same molecule, in test [2] (setting [4]), the IC95 stood at 12 nM.

With `CCCN([C@H](CO)CCC[C@@H](NC(=O)[C@@H](NC(=O)OC)C(c1ccccc1)c1ccccc1)C1CC1)S(=O)(=O)c1ccc(CO)cc1` [Example I4, N-{(1R,5S)-1-cyclopropyl-6-hydroxy-5-[{[4-(hydroxymethyl)phenyl]sulfonyl}(propyl)amino]hexyl}-Nα-(methoxycarbonyl)-β-phenyl-L-phenylalaninamide], the IC50 in test [1] (setting [3]) stood at 0.058 nM. In test [2] (setting [4]), the IC95 came out at 29 nM.

For `CC[C@@H](CCC[C@@H](CO)N(C(C)C)S(=O)(=O)c1ccc(N)cc1)NC(=O)[C@@H](NC(=O)OC)C(c1ccccc1)c1ccccc1` [Example G18, N-{(1S,5S)-5-[[(4-aminophenyl)sulfonyl](isopropyl)amino]-1-ethyl-6-hydroxyhexyl}-Nα-(methoxycarbonyl)-β-phenyl-L-phenylalaninamide], the IC50 in test [1] (setting [3]) stood at 0.755 nM. Moreover, the IC95 in test [2] (setting [4]) turned out to be 199 nM.

For the molecule `COC(=O)N[C@H](C(=O)N[C@H](CCC[C@@H](CO)N(CCC(C)C)S(=O)(=O)c1ccc(CO)cc1)C(F)(F)C(F)(F)F)C(c1ccccc1)c1ccccc1` [Example J12, N-[(1R,5S)-6-hydroxy-5-[{[4-(hydroxymethyl)phenyl]sulfonyl}(3-methylbutyl)amino]-1-(pentafluoroethyl)hexyl]-Nα-(methoxycarbonyl)-β-phenyl-L-phenylalaninamide], the IC50 in test [1] (setting [3]) came out at 0.036 nM. In addition, the IC95 in test [2] (setting [4]) is 43 nM.

With `COC(=O)N[C@H](C(=O)NCCC(C)C[C@@H](CO)N(CCC(C)C)S(=O)(=O)c1ccc(C)cc1)C(c1ccccc1)c1ccccc1` (stereo partly drawn) [Example B2], in test [1] (setting [3]), the IC50 worked out at 0.52 nM. Besides, the IC95 in test [2] (inhibition of HIV-1 replication, 10% FBS, read-out: Spread - IC95) is given as 368 nM.

Consider `COC(=O)N[C@H](C(=O)N[C@H](CCC[C@@H](CO)N(CCC(C)C)S(=O)(=O)c1ccc(N)c(F)c1)C(C)C)C(c1ccccc1)c1ccccc1` [Example D16, N-{(1R,5S)-5-[[(4-amino-3-fluorophenyl)sulfonyl](3-methylbutyl)amino]-6-hydroxy-1-isopropylhexyl}-Nα-(methoxycarbonyl)-β-phenyl-L-phenylalaninamide], for which, in test [1] (setting [3]), the IC50 stood at 0.329 nM. Moreover, in test [2] (setting [4]), the IC95 came out at 152 nM.

In test [1], `CC[C@@H](CCC[C@@H](CO)N(CC(C)C)S(=O)(=O)c1ccc(CO)cc1)NC(=O)[C@@H](N)C(c1ccccc1)c1ccccc1` [Example J32, N-{(1S,5S)-1-ethyl-6-hydroxy-5-[{[4-(hydroxymethyl)phenyl]sulfonyl}(isobutyl)amino]hexyl}-β-phenyl-L-phenylalaninamide hydrochloride] displayed an IC50 of 0.01 nM. Moreover, the IC95 in test [2] (setting [4]) amounted to 25 nM.

Consider `COC(=O)N[C@@H](Cc1cccc2ccccc12)C(=O)N[C@H](CCC[C@@H](CO)N(CCC(C)C)S(=O)(=O)c1ccc(N)cc1)C1CC1` [Example E9, methyl [(1S)-2-({(1R,5S)-5-[[(4-aminophenyl)sulfonyl](3-methylbutyl)amino]-1-cyclopropyl-6-hydroxyhexyl}amino)-1-(1-naphthylmethyl)-2-oxoethyl]carbamate], for which the IC50 in test [1] (setting [3]) was 0.354 nM. Moreover, the IC95 in test [2] (setting [4]) was 117 nM.
